Biological target: T1, SIRT1 (Homo sapiens, UniProt Q96EB6)
T1 sequence (Q96EB6 1-747): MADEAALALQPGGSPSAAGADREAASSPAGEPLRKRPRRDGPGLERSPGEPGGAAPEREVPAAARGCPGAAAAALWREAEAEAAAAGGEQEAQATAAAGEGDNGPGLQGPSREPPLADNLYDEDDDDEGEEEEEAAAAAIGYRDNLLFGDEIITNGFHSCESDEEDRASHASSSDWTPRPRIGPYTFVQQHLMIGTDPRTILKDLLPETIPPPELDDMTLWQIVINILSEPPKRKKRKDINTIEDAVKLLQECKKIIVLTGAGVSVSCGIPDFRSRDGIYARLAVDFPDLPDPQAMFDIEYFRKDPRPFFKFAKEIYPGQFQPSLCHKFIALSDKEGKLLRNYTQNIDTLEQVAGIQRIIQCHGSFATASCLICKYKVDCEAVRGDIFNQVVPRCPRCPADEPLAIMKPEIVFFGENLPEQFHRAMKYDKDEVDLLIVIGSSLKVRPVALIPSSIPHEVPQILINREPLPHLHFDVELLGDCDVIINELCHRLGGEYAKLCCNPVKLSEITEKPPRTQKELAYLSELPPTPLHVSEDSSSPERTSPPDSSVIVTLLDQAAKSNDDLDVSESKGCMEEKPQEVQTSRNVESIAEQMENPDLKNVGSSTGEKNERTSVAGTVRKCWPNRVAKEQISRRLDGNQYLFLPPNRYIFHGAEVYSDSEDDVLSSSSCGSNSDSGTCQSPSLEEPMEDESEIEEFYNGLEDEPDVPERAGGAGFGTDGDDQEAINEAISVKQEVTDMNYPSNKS
Assay: SIRT1 mass spectrometry assay (screening for activation)
Format: biochemical
Conditions: for FOLD ACTIVATION MS: activation of SIRT1, mass spectrometry; for EC50: activation of SIRT1, 0.5 μM peptide substrate (SEQ ID NO: 34), 120 μM NAD+, 10 nM SIRT1, 25 min, read-out: ED50 MS ASSAY

SMILES	FOLD ACTIVATION MS	EC50
COc1ccc(C(=O)Nc2cccc(-c3cc4cccnc4o3)c2)cc1OC [compound 192]	B (Fold Activation<250%)	–
CN(C)c1cccc(C(=O)Nc2ccc(-c3nc4ncccc4s3)cc2)c1 [compound 196]	B (Fold Activation<250%)	–
COc1ccc(C(=O)Nc2ccc(-c3nc4ncccc4s3)cc2)cc1OC [compound 197]	B (Fold Activation<250%)	< 50 µM
COc1ccc(C(=O)Nc2cccc(-c3nc4ncccc4s3)c2)c(OC)c1OC [compound 198]	B (Fold Activation<250%)	–
COc1cc(C)ccc1C(=O)Nc1cccc(-c2nc3ncccc3s2)c1 [compound 199]	B (Fold Activation<250%)	< 50 µM
CN(C)c1cccc(C(=O)Nc2cccc(-c3nc4ncccc4s3)c2)c1 [compound 200]	B (Fold Activation<250%)	< 50 µM
COc1ccc(C(=O)Nc2cccc(-c3nc4ncccc4s3)c2)cc1OC [compound 201]	B (Fold Activation<250%)	–
COc1ccc(C(=O)Nc2cccc(-c3nc4ncccc4s3)c2)c(OC)c1 [compound 202]	B (Fold Activation<250%)	< 50 µM
COc1ccc(C(=O)Nc2ccccc2-c2cn3ccsc3n2)cc1OC [compound 203]	B (Fold Activation<250%)	< 50 µM
COc1cc(C(=O)Nc2ccccc2-c2cn3ccsc3n2)cc(OC)c1OC [compound 204]	A (Fold activation>250%)	< 50 µM
COc1ccc(C(=O)Nc2ccccc2-c2cn3c(CN(C)C)csc3n2)cc1OC [compound 205]	A (Fold activation>250%)	–
COc1cc(C(=O)Nc2ccccc2-c2cn3c(CN(C)C)csc3n2)cc(OC)c1OC [compound 206]	A (Fold activation>250%)	–
COc1ccc(C(=O)Nc2ccccc2-c2cn3c(CN4CCNCC4)csc3n2)cc1OC [compound 207]	A (Fold activation>250%)	–
COc1cc(C(=O)Nc2ccccc2-c2cn3c(CN4CCNCC4)csc3n2)cc(OC)c1OC [compound 208]	A (Fold activation>250%)	–
COc1ccc(C(=O)Nc2ccccc2-c2cn3c(CN4CCOCC4)csc3n2)cc1OC [compound 209]	A (Fold activation>250%)	–
COc1cc(C(=O)Nc2ccccc2-c2cn3c(CN4CCOCC4)csc3n2)cc(OC)c1OC [compound 210]	B (Fold Activation<250%)	–
COc1ccc(C(=O)Nc2cccc(-c3nc4ccccc4[nH]3)c2)c(OC)c1 [compound 211]	B (Fold Activation<250%)	< 50 µM

SMILES	FOLD ACTIVATION MS	EC50
COc1cccc(C(=O)Nc2cccc(-c3nc4cccnc4s3)c2)c1 [compound 212]	B (Fold Activation<250%)	–
COc1ccc(C(=O)Nc2cccc(-c3nc4cccnc4s3)c2)c(OC)c1 [compound 213]	B (Fold Activation<250%)	< 50 µM
COc1cccc(C(=O)Nc2cccc(-c3nc4cccnc4s3)c2)c1OC [compound 214]	B (Fold Activation<250%)	–
COc1cc(OC)cc(C(=O)Nc2cccc(-c3nc4cccnc4s3)c2)c1 [compound 215]	B (Fold Activation<250%)	< 50 µM
COc1ccc(C(=O)Nc2cccc(-c3nc4cccnc4s3)c2)cc1 [compound 216]	B (Fold Activation<250%)	< 50 µM
COc1cc(C(=O)Nc2cccc(-c3nc4cccnc4s3)c2)cc(OC)c1OC [compound 217]	A (Fold activation>250%)	< 50 µM
COc1cc(C(=O)Nc2cccc(-c3cn4cccnc4n3)c2)cc(OC)c1OC [compound 218]	A (Fold activation>250%)	< 50 µM
COc1cc(C(=O)Nc2cccc(-c3nc4ncccn4c3C)c2)cc(OC)c1OC [compound 219]	A (Fold activation>250%)	–
O=C(Nc1cccc(-c2nc3ccncc3s2)c1)c1ccco1 [compound 221]	B (Fold Activation<250%)	–
O=C(Nc1cccc(-c2nc3ccncc3s2)c1)c1cccnc1Cl [compound 222]	B (Fold Activation<250%)	–
O=C(Nc1cccc(-c2nc3ccncc3s2)c1)c1cccs1 [compound 223]	B (Fold Activation<250%)	< 50 µM
Cc1cc(C(=O)Nc2cccc(-c3nc4ccncc4s3)c2)n(C(C)(C)C)n1 [compound 228]	A (Fold activation>250%)	–
O=C(Nc1cccc(-c2nc3ccncc3s2)c1)c1cnn(-c2ccccc2)c1C(F)(F)F [compound 238]	B (Fold Activation<250%)	< 50 µM
O=S(=O)(Nc1cccc(-c2nc3ccncc3s2)c1)c1ccc(OC(F)(F)F)cc1 [compound 239]	B (Fold Activation<250%)	< 50 µM
O=C(Nc1cccc(-c2nc3ccncc3s2)c1)c1ccc(-c2ccccc2)o1 [compound 241]	B (Fold Activation<250%)	< 50 µM
O=C(Nc1cccc(-c2nc3ccncc3s2)c1)c1ccccc1Oc1ccccc1 [compound 245]	B (Fold Activation<250%)	< 50 µM
Cn1nc(C(C)(C)C)cc1C(=O)Nc1cccc(-c2nc3ccncc3s2)c1 [compound 246]	B (Fold Activation<250%)	< 50 µM

Now from value to compound:

FOLD ACTIVATION MS	EC50	SMILES
B (Fold Activation<250%)	–	O=C(Nc1cccc(-c2nc3ccncc3s2)c1)c1cc(C(F)(F)F)ccc1C(F)(F)F [compound 248]
B (Fold Activation<250%)	< 50 µM	COc1ccc(C(=O)Nc2ccccc2-c2cc3ccccc3[nH]2)cc1OC [compound 254]
B (Fold Activation<250%)	< 50 µM	COc1cc(C(=O)Nc2ccccc2-c2cc3ccccc3[nH]2)cc(OC)c1OC [compound 255]
B (Fold Activation<250%)	–	COC(=O)c1ccc(-n2cncn2)c(NC(=O)c2ccc(OC)c(OC)c2)c1 [compound 258]
A (Fold activation>250%)	< 50 µM	COc1cc(C(=O)Nc2cccc(-c3nc4ccccc4[nH]3)n2)cc(OC)c1OC [compound 259]
A (Fold activation>250%)	< 50 µM	COc1ccc(C(=O)Nc2cccc(-c3nc4ccccc4[nH]3)n2)cc1OC [compound 260]
A (Fold activation>250%)	< 50 µM	COc1cccc(C(=O)Nc2cccc(-c3nc4ccccc4[nH]3)n2)c1 [compound 261]
B (Fold Activation<250%)	< 50 µM	COc1ccc(C(=O)Nc2ccc(-c3nc4ccccc4[nH]3)cc2)c(OC)c1 [compound 262]
B (Fold Activation<250%)	–	COc1cc(C(=O)Nc2ccc(-c3nc4ccccc4[nH]3)cc2)cc(OC)c1OC [compound 263]
B (Fold Activation<250%)	< 50 µM	CN(C)c1cccc(C(=O)Nc2ccc(-c3cc4ccccc4[nH]3)cc2)c1 [compound 264]
B (Fold Activation<250%)	–	COc1ccc(C(=O)Nc2ccccc2-c2cn3ccccc3n2)c(OC)c1 [compound 265]
A (Fold activation>250%)	< 50 µM	COc1ccc(C(=O)Nc2ccccc2-c2cn3ccccc3n2)cc1OC [compound 266]
B (Fold Activation<250%)	< 50 µM	COc1cc(C(=O)Nc2ccccc2-c2cn3ccccc3n2)cc(OC)c1OC [compound 267]
B (Fold Activation<250%)	< 50 µM	CN(C)c1cccc(C(=O)Nc2ccccc2-c2cn3ccccc3n2)c1 [compound 268]
A (Fold activation>250%)	–	COc1ccc(C(=O)Nc2ccccc2-c2cn3cc(CN4CCNCC4)sc3n2)cc1OC [compound 270]
A (Fold activation>250%)	< 50 µM	COc1cc(C(=O)Nc2ccccc2-c2cn3cc(CN4CCNCC4)sc3n2)cc(OC)c1OC [compound 271]
B (Fold Activation<250%)	< 50 µM	COc1ccc(C(=O)Nc2cccc(-c3nc4cnccc4s3)c2)c(OC)c1 [compound 272]
A (Fold activation>250%)	–	COc1cc(C(=O)Nc2cccc(-c3nc4cnccc4s3)c2)cc(OC)c1OC [compound 273]
B (Fold Activation<250%)	< 50 µM	COc1ccc(C(=O)Nc2ncccc2-c2nc3ccccc3[nH]2)cc1OC [compound 276]
B (Fold Activation<250%)	–	CC(=O)Nc1ccc(S(=O)(=O)Nc2cccc(-c3nc4ccncc4s3)c2)cc1 [compound 288]
B (Fold Activation<250%)	–	COc1ccc(S(=O)(=O)Nc2cccc(-c3nc4ccncc4s3)c2)cc1OC [compound 289]
